Source: patent US6582734B1, “Antimicrobial composition useful for the treatment of bovine mastitis” (Ecolab Inc., priority 2000, dated 2003)

Columns and labels:
[1] = system: Escherichia coli (ATCC 11229); experiment: Antimicrobial effect of ClO2 compositions with/without heptanoic acid, E. coli; type: cell-based; conditions: no secondary antimicrobial fatty acid added
Protocol: (§1) This experiment was used to determine what affect the addition of a fatty acid, the secondary antimicrobial agent, had on the effectiveness of the compositions in killing E. Coli and S. Aureus. The secondary fatty acid used was heptanoic acid at a level of 1% in examples 1, 2 and 3. The comparative examples, A, B and C, contained no fatty acid.
(§2) Three compositions were prepared from each base solution. Sodium chlorite was added in amounts that were sufficient to form compositions having 200 ppm, 300 ppm and 400 ppm ClO2. Six compositions were prepared in all.
(§3) The compositions were then tested for the antimicrobial effect against Staphylococcus aureus and Escherichia coli. The inoculum numbers in CFU/mL were 1.1×10^7 (ATCC 6538) and 1.0×10^8 (ATCC 11229). The test temperature was 25° C. and the solution pH was 5.5. The following Table II illustrates the results obtained.

[2] = system: Staphylococcus aureus (ATCC 6538); experiment: Antimicrobial effect of ClO2 compositions with/without heptanoic acid, S. aureus; type: cell-based; conditions: no secondary antimicrobial fatty acid added
Protocol: as §1, §2, §3

S. aureus = experiment: Effect of various acids on antimicrobial activity of the base solution (no chlorine dioxide), S. aureus; type: cell-based, Staphylococcus aureus; conditions: used alone at 1%
Protocol: (§4) The effect of various acids on the antimicrobial activity of the base solution was measured. No chlorine dioxide was added to the compositions. Acids were added to each sample at a concentration of 1%. Example 4 had 1% heptanoic acid and Comparative Example D had 1% lactic acid. Examples 5 and 6 utilized blends of acids. The antimicrobial activity of each was measured and compared in the following Table III.

E. coli = experiment: Effect of various acids on antimicrobial activity of the base solution (no chlorine dioxide), E. coli; type: cell-based, Escherichia coli; conditions: used alone at 1%
Protocol: as §4

SMILES	concentration level of chlorine dioxide that provided an effective antimicrobial kill of E. Coli [1]	concentration level of chlorine dioxide that provided an effective antimicrobial kill of S. Aureus [2]	effect against the microbes (S. aureus), in words (S. aureus)	effect against the microbes (E. coli), in words (E. coli)
[O][Cl+][O-] [chlorine dioxide]	300 ppm	300 ppm	–	–
CC(O)C(=O)O (stereo not shown) [lactic acid]	–	–	does not have much of any effect	does not have much of any effect
